# Measurements: patent US9814707B2, “Cancer stem cell proliferation inhibitor and intracellular active oxygen accumulation inducer” (Keio University, priority 2014, dated 2017)
# Tests used:
# [1] = test system: HSC2, HSC3, HSC4, and OSC19 cells; experiment: Sensitivity of squamous cell carcinoma cell lines to cisplatin, cell viability by Celltiter-Glo after 72 hours; format: cell-based; details: OSC19 compared with HSC2, HSC3, and HSC4, cisplatin 1, 2.5, 5, 7.5 μM, FIG. 3
# Description: Next, GSH levels in the cells were measured using GSH-Glo™ Glutathione Assay (Promega) to examine the correlation with the CD44v expression. Furthermore, in order to examine the sensitivity of the cell lines in which CD44 expression is suppressed to cisplatin, each cell line was seeded onto a 96-well plate at 2000 cells/well and cisplatin was added the following day at concentrations of 1, 2.5, 5, and 7.5 μM. After 72 hours, the cell viability was measured using Celltiter-Glo (Promega).
# OSC19 cells [2] = experiment: Level of reactive oxygen species by H2DCFDA staining, fluorescence microscopy; format: cell-based; details: 10 μM, 24 hours, FIG. 6
# Description: Next, change in level of reactive oxygen species by the compounds having a high selectivity to OSC19 was examined. OSC19 cells were seeded onto 24-well glass-bottomed plate at 1×10^5 cells/well, and each compound was added at 10 μM on the following day. Subsequently, the cells were incubated for 24 hours, stained with 2′,7′-dichloro-dihydro-fluorescein-diacetate (H2DCFDA), which is a redox fluorescence indicator, and observed under a fluorescence microscope. In addition, their ability of inducing the reactive oxygen species was evaluated according to the fluorescence intensity. FIG. 6 is fluorescence micrographs of OSC19 cells treated with the compounds given in Table 1, showing the increase in ROS in OSC19 cells scored on 4 rating scales. The “4 rating scales” are as follows.
# OSC19 and HSC4 cells [3] = experiment: Cell viability by Celltiter-Glo after 72 hours with pimozide or sulfasalazine; format: cell-based; details: FIGS. 7 and 8; for sensitivity of OSC19 cells versus HSC4 cells (cell viability): pimozide 0.3-100 μM, sulfasalazine 10-1000 μM
# Description: Cell viability was examined for OSC19 and HSC4 cells incubated in a medium supplemented with US077 (pimozide). […] OSC19 and HSC4 cells were seeded in 96-well plates at 3000 cells/well and 2000 cells/well, respectively. On the following day, 0 μM (no addition), 0.3 μM, 1 μM, 3 μM, 10 μM, 30 μM, or 100 μM of pimozide or 0 μM (no addition), 10 μM, 30 μM, 100 μM, 300 μM, or 1000 μM of sulfasalazine were added. Then, the cells were incubated for 72 hours and cell viability was measured using Celltiter-Glo (Promega).
# OSC19 cells [4] = experiment: Subcutaneous OSC19 transplant in nude mice, tumor volume and tumor mass; format: in vivo; details: 1 mg/kg intraperitoneally once daily from day 5 to day 35 versus saline; FIGS. 9 and 10
# Description: Next, 1×10^6 OSC19 cells were subcutaneously transplanted into nude mice. After 5 days of transplantation, 1 mg/kg of pimozide or saline was intraperitoneally administered once daily to day 35. Short and long axes of each tumor were measured once every 3-4 days and a volume of the tumor was calculated using the following equation. Tumor volume=(long axis×(short axis)^2)/2 Specific tumor volume=tumor volume on the day measured/tumor volume at the beginning of administration Statistic analysis of the tumor volume was performed using Two-way ANOVA. Each tumor was removed after the treatment experiments and the mass of the tumor was measured. Statistic analysis of the tumor mass was performed using a t-test.
# OSC19 and HSC4 cells [5] = experiment: Intracellular reactive oxygen species by H2DCFDA staining with pimozide or sulfasalazine; format: cell-based; details: 24 hours, FIG. 11; for inductive effect on intracellular accumulation of reactive oxygen species, OSC19 versus HSC4: pimozide 1, 3, 10 μM, sulfasalazine 300 μM
# Description: OSC19 and HSC4 cells were seeded onto 24-well glass-bottomed plate at 1×10^5 cells/well. On the following day, 0 μM (no addition), 1 μM, 3 μM, or 10 μM of pimozide or 300 μM of sulfasalazine was added. Subsequently, the cells were incubated for 24 hours, stained with H2DCFDA to visualize intracellular reactive oxygen species, and observed under a fluorescence microscope.
# OSC19 and HSC4 cells [6] = experiment: Cell viability by Celltiter-Glo after 72-hour incubation with sertindole; format: cell-based; details: sertindole 0.19-45.00 μM, FIG. 12
# Description: OSC19 and HSC4 cells were seeded in 96-well plates at 3000 cells/well and 2000 cells/well, respectively, and started to be incubated. Two days after the beginning of the incubation, 0 μM (no addition), 0.19 μM, 0.56 μM, 1.67 μM, 5.00 μM, 15.00 μM, or 45.00 μM of sertindole was added. After 72-hour incubation, the number of the survived cells was measured using Celltiter-Glo (registered trademark) (Luminescent Cell Viability Assay; Promega). A ratio of the number of the survived cells to the number of the cells on the first day of incubation was calculated as a cell viability value.
# OSC19 cells [7] = experiment: Ratio of H2DCFDA-stained cells to Hoechst33342-stained cells with sertindole or sulfasalazine; format: cell-based; details: 10 μM sertindole versus 300 μM sulfasalazine, 24 hours; FIG. 13
# Description: OSC19 cells were seeded onto 24-well glass-bottomed plate at 1×10^5 cells/well and started to be incubated. Two days after the beginning of the incubation, 0.1 μM, 1 μM, or 10 μM of sertindole or 300 μM of sulfasalazine was added. DMSO was added to the control. The cells were then incubated for 24 hours, and 2′,7′-dichloro-dihydro-fluorescein-diacetate (H2DCFDA), which is a redox fluorescence indicator capable of emitting fluorescence when oxidized by reactive oxygen species in cells and Hoechst33342 that stains a cell nucleus were added. A ratio of the number of cells stained with H2DCFDA to the number of cells stained with Hoechst33342 was calculated.
# OSC19 = experiment: Combined use of pimozide and sulfasalazine, cell viability by CellTiter-Glo after 72 hours; format: cell-based; details: 150 μM of sulfasalazine alone, OSC19, 72 hours
# Description: Oral squamous cell carcinoma cell line, OSC19, was seeded onto 96-well plates at 3000 cells/well. On the following day, a combination of 0 μM (no addition; only DMSO), 1 μM, 2 μM, or 3 μM of pimozide, and 0 μM (no addition; only DMSO), 10 μM, 50 μM, 100 μM, 150 μM, or 200 μM of sulfasalazine was added. Subsequently, cells were incubated for 72 hours, and cell viability was measured using a CellTiter-Glo Luminescent Cell Viability Assay kit (Promega). Effects obtained using pimozide and sulfasalazine at different concentrations are shown in a graph in FIG. 14.
compound,measurement,setting,value
N.N.[Cl][Pt][Cl] [cisplatin],sensitivity to cisplatin (cell viability),[1],significantly lower in sensitivity to cisplatin
"O=c1[nH]c2ccccc2n1C1CCN(CCCC(c2ccc(F)cc2)c2ccc(F)cc2)CC1 [pimozide, Pimozide]",increase in ROS in OSC19 cells scored on 4 rating scales,OSC19 cells [2],significantly great increase in ROS level
same,"inhibitory effect on cell proliferation, concentration compared with sulfasalazine",OSC19 and HSC4 cells [3],inhibitory effect on cell proliferation at a lower concentration than sulfasalazine
same,sensitivity of OSC19 cells versus HSC4 cells (cell viability),OSC19 and HSC4 cells [3],higher sensitivity to pimozide than the HSC4 cells
same,tumor volume and tumor mass on day 35 (proliferation of OSC19 cells in mice),OSC19 cells [4],inhibition of proliferation of the OSC19 cells
same,inductive effect on intracellular accumulation of reactive oxygen species compared with sulfasalazine,"OSC19 and HSC4 cells [5]; pimozide 1, 3, 10 μM versus sulfasalazine 300 μM",significantly greater inductive effect on intracellular accumulation of reactive oxygen species at a significantly lower concentration as compared with sulfasalazine
same,"inductive effect on intracellular accumulation of reactive oxygen species, OSC19 versus HSC4",OSC19 and HSC4 cells [5],inductive effect on intracellular accumulation of reactive oxygen species selectively in OSC19 cells
"O=C1NCCN1CCN1CCC(c2cn(-c3ccc(F)cc3)c3ccc(Cl)cc23)CC1 [sertindole, Sertindole]","inhibition of cell proliferation, OSC19 versus HSC4 (cell viability)",OSC19 and HSC4 cells [6],cell proliferation was inhibited by the addition of a lower concentration of sertindole for OSC19 than for HSC4
same,intracellular ROS level (H2DCFDA-stained / Hoechst33342-stained cells) compared with sulfasalazine,OSC19 cells [7],intracellular ROS level was higher as compared with a case where sulfasalazine was added at 30 times higher concentration
Sulfasalazine,sensitivity of OSC19 cells versus HSC4 cells (cell viability),OSC19 and HSC4 cells [3],higher sensitivity to sulfasalazine than the HSC4 cells
same,"inductive effect on intracellular accumulation of reactive oxygen species, OSC19 versus HSC4",OSC19 and HSC4 cells [5],selectively in OSC19 cells as in the case of sulfasalazine
same,mortality of cells,OSC19,about 30%
